From patent US20140296146A1, “Thermostable Inhibitors of Activation of the Blood Clotting System Through Contact with Foreign Surfaces” (Synapse B.V., priority 2011, published 2014)

Experiments:
contact activation = assay: CAT assay at 0 pM TF on PPP from blood collection tubes with TICA added to tube or to assay; assay type: biochemical, human
Method: In 12 donors blood was drawn with 7 different drawing tubes with and without addition of TICA1 in the drawing tubes (total 14 tubes; 78 ml). After preparing PPP from these tubes, CAT measurements with MP reagent and pplow reagent was performed. One donor is measured in one plate. (pplow duplicate; MP duplicate; calibrator in 4 fold. Total volume is 320 μl sample/measurement in total 88 wells/donor.
In 12 donors blood is taken with the following commercial available drawing tubes: (From all blooddrawing tubes one tube with and one tube without TICA will be used to draw blood)
Final TICA concentration after blood drawing in every tube with added TICA is 30 μg/ml whole blood.
Final TICA concentration in plasma after preparing PPP is 60 μg/ml (assuming an hematocit of 50%)
CAT measurements with MP reagent and pplow reagent will be performed. One donor is measured in one plate. PPLow duplicate; MP duplicate; calibrator in 4 fold.
Total volume is 320 μl sample/measurement in total 88 wells/donor. NP2012 is also included in the measurement in 4 fold.
Lag times, Endogenous thrombin potentials, and peak height were recorded, For the current conditions of thrombin generation, peak height is the preferred parameter for interpretation of the results.
Plasma with TICA added: concentration in plasma: 60 μg/ml
Stock TICA: 1.5 mg/ml=>1500 μg/ml
20 μl TICA (stock: 1500 μg/ml) is added to 480 μl plasma.

h-FXIIa [1] = target: T1, h-FXIIa (human, UniProt P00748 20-615); assay: S2302 hydrolysis by h-FXIIa (5.01 nM); inhibitor kept at -80° C.
T1 construct: also called factor XIIa
T1 sequence (looked up): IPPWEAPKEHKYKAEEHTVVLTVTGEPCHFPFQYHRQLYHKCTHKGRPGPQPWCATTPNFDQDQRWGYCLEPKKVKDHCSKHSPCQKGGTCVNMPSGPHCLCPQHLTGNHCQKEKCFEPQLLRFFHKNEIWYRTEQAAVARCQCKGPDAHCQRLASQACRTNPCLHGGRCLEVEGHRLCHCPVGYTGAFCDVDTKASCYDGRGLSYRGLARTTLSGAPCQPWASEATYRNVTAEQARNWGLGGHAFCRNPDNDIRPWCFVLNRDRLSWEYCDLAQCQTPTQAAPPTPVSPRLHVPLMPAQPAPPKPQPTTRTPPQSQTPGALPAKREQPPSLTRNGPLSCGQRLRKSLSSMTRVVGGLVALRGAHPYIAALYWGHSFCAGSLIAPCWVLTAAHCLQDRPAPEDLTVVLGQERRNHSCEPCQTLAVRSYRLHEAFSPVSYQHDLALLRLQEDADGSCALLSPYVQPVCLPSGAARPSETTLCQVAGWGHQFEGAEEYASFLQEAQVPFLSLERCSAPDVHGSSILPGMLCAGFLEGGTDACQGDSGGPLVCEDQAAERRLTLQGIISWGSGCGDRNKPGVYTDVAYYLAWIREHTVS
Method: (§1) Stock FXIIa was diluted 700× in BSA5. The inhibitor was diluted in BSA5 as indicated. Wells contained 70 μl diluted FXIIa (5 nM final), 70 μl inhibitor and 20 μl S2302 (475 or 462.5 μM final). The reaction was started after 5 min heating on the heating plate with S2302. Filters 405 nm and 490 nm reference. Found ΔmA/min was multiplied by 2.14 to get the figure for a 1 cm path.

h-FXIIa [2] = target: T1, h-FXIIa; assay: S2302 hydrolysis by h-FXIIa (5.01 nM); inhibitor at RT during 72 hrs
Method: as §1

h-FXIIa [3] = target: T1, h-FXIIa; assay: S2302 hydrolysis by h-FXIIa (5.01 nM); inhibitor kept at -80° C. (reference)
Method: as §1

h-FXIIa [4] = target: T1, h-FXIIa; assay: S2302 hydrolysis by h-FXIIa (5.01 nM); inhibitor 30 min 95° C., against -80° C.
Method: as §1

[5] = TICA added to CAT assay, 60 μg/ml in plasma
[6] = TICA added to Tube, 30 μg/ml whole blood

Molecule: CC[C@H](C)[C@@H]1NC(=O)[C@H](CCCNC(=N)N)NC(=O)[C@@H]2CCCN2C(=O)[C@@H](NC(=O)[C@@H](NC(=O)[C@@H](N)CCCNC(=N)N)C(C)C)CSSC[C@@H]2NC(=O)[C@H](CCC(=O)O)NC(=O)[C@H](C)NC(=O)[C@H](CC(C)C)NC(=O)[C@@H]3CSSC[C@@H](C(=O)NCC(=O)O)NC(=O)[C@H](Cc4ccc(O)cc4)NC(=O)CNC(=O)[C@H](Cc4c[nH]cn4)NC(=O)[C@H](CCC(=O)O)NC(=O)[C@H](CC(C)C)NC(=O)[C@H](CSSC[C@H](NC(=O)[C@H](CCCCN)NC(=O)[C@H](CCSC)NC(=O)[C@H](CC(C)C)NC1=O)C(=O)N[C@@H](CCCCN)C(=O)N[C@@H](CCCCN)C(=O)N[C@@H](CC(=O)O)C(=O)N[C@@H](CO)C(=O)N[C@@H](CC(=O)O)C(=O)N3)NC(=O)[C@H](C(C)C)NC2=O [TICA1]
- BD Glass 0 pM TF ETP (nM IIa · min) (contact activation; [5]): 760 ± 526 nM IIa · min
- BD Glass 0 pM TF Lagtime (min) (contact activation; [5]): 38.8 ± 34.8 min
- BD Glass 0 pM TF Peak Height (nM IIa) (contact activation; [5]): 105 ± 81 nM IIa
- BD Plastic 0 pM TF ETP (nM IIa · min) (contact activation; [5]): 614 ± 538 nM IIa · min
- BD Plastic 0 pM TF Lagtime (min) (contact activation; [5]): 49.5 ± 37.7 min
- BD Plastic 0 pM TF Peak Height (nM IIa) (contact activation; [5]): 86 ± 87 nM IIa
- Greiner 0 pM TF ETP (nM IIa · min) (contact activation; [5]): 834 ± 449 nM IIa · min
- Greiner 0 pM TF Lagtime (min) (contact activation; [5]): 31.2 ± 26.7 min
- Greiner 0 pM TF Peak Height (nM IIa) (contact activation; [5]): 110 ± 70 nM IIa
- Heamtech 0 pM TF ETP (nM IIa · min) (contact activation; [5]): 666 ± 552 nM IIa · min
- Heamtech 0 pM TF Lagtime (min) (contact activation; [5]): 46.4 ± 39.7 min
- Heamtech 0 pM TF Peak Height (nM IIa) (contact activation; [5]): 93 ± 85 nM IIa
- Sarstedt 0 pM TF ETP (nM IIa · min) (contact activation; [5]): 279 ± 227 nM IIa · min
- Sarstedt 0 pM TF Lagtime (min) (contact activation; [5]): 50.0 ± 38.0 min
- Sarstedt 0 pM TF Peak Height (nM IIa) (contact activation; [5]): 26 ± 23 nM IIa
- Terumo 0 pM TF ETP (nM IIa · min) (contact activation; [5]): 276 ± 367 nM IIa · min
- Terumo 0 pM TF Lagtime (min) (contact activation; [5]): 64 ± 40.6 min
- Terumo 0 pM TF Peak Height (nM IIa) (contact activation; [5]): 33 ± 50 nM IIa
- BD Glass 0 pM TF ETP (nM IIa · min) (contact activation; [6]): 77 ± 119 nM IIa · min
- BD Glass 0 pM TF Lagtime (min) (contact activation; [6]): 76.6 ± 34.0 min
- BD Glass 0 pM TF Peak Height (nM IIa) (contact activation; [6]): 6 ± 9 nM IIa
- BD Plastic 0 pM TF ETP (nM IIa · min) (contact activation; [6]): 20 ± 61 nM IIa · min
- BD Plastic 0 pM TF Lagtime (min) (contact activation; [6]): 90.1 ± 26.8 min
- BD Plastic 0 pM TF Peak Height (nM IIa) (contact activation; [6]): 2 ± 6 nM IIa
- Greiner 0 pM TF ETP (nM IIa · min) (contact activation; [6]): 144 ± 164 nM IIa · min
- Greiner 0 pM TF Lagtime (min) (contact activation; [6]): 65.0 ± 34.8 min
- Greiner 0 pM TF Peak Height (nM IIa) (contact activation; [6]): 11 ± 13 nM IIa
- Heamtech 0 pM TF ETP (nM IIa · min) (contact activation; [6]): 289 ± 420 nM IIa · min
- Heamtech 0 pM TF Lagtime (min) (contact activation; [6]): 65.0 ± 34.8 min
- Heamtech 0 pM TF Peak Height (nM IIa) (contact activation; [6]): 36 ± 62 nM IIa
- Sarstedt 0 pM TF ETP (nM IIa · min) (contact activation; [6]): 140 ± 106 nM IIa · min
- Sarstedt 0 pM TF Lagtime (min) (contact activation; [6]): 52.5 ± 36.2 min
- Sarstedt 0 pM TF Peak Height (nM IIa) (contact activation; [6]): 10 ± 8 nM IIa
- Terumo 0 pM TF ETP (nM IIa · min) (contact activation; [6]): 59 ± 119 nM IIa · min
- Terumo 0 pM TF Lagtime (min) (contact activation; [6]): 75.7 ± 35.6 min
- Terumo 0 pM TF Peak Height (nM IIa) (contact activation; [6]): 5 ± 11 nM IIa

B1: Corn trypsin inhibitor (other, UniProt P01088 29-138, looked up)
chain: SAGTSCVPGWAIPHNPLPSCRWYVTSRTCGIGPRLPWPELKRRCCRELADIPAYCRCTALSILMDGAIPPGPDAQLEGRLEDLPGCPREVQRGFAATLVTEAECNLATIS
notes: also called CTI
- Ki (h-FXIIa [1]): 3.59 nM
- Ki (h-FXIIa [2]): 4.19 nM
- Res. Act. (%) (h-FXIIa [3]): 100%
- Res. Act. (%) (h-FXIIa [4]): 70%
